Here are results for four compounds from patent publication US11046651B2, “Piperazine substituted azapine derivatives and uses thereof” (Alairion, Inc., priority 2019, dated 2021).

Experiment [1] has as its target 5-HT2C (Homo sapiens (Human), UniProt P28335). The experiment in a line: 5-HT2C binding assay ([3H]-Mesulergine, HEK293 membranes). As to conditions: numeric values. The method, then: 5-HT2C Binding Assay Protocol
The testing compounds were diluted with DMSO, starting at 2 mM, with 8-points and 5-fold serial dilutions.
1 μL of a compound of the present disclosure the reference compound (Table J) was transferred to an assay plate. […] 1 μL of DMSO was transferred to an assay plate according to the plate map for total binding (High control: HC).
(§1) Unifilter-96 GF/C filter plates were soaked with 50 μL of 0.3% PEI per well for about 0.5 hours at room temperature. When the binding assays were complete, the reaction mixture was filtered through the GF/C filter plates using Perkin Elmer Filtermate Harvester, and each plate was washed 4 times with cold wash buffer. The filter plates were dried for 1 hour at 50° C. After drying, the bottom of the filter plate wells were sealed using Perkin Elmer Unifilter-96 backing seal tape. 50 μL of Perkin Elmer Microscint 20 cocktail was added. The top of the filter plates were sealed with Perkin Elmer TopSeal-A sealing film.
^3H trapped on filters were counted using Perkin Elmer MicroBeta2 Reader. Inhibition constants were calculated using the following equation:
[formula] The data was analyzed using Prism 5. The model used was “log(inhibitor) vs. response—Variable slope” to fit the data and calculate IC50. The IC50 was then converted to Ki using the following equation: Ki=IC50/(1+L/Kd), wherein L is the radioligand concentration in the reaction system; Kd is the affinity of radioligand to the receptor.

Experiment [2] concerns the target D2 (Homo sapiens (Human), UniProt P14416). The experiment is described as follows: D2 binding assay ([3H] 7-OH-DPAT, HEK293 D2L membranes). To be noted: numeric values. The procedure: D2 Binding Assay Protocol
The testing compounds were diluted with DMSO, starting at 2 mM, with 8-points and 5-fold serial dilutions. droperidol was diluted with DMSO, starting at 0.2 mM, with 8-points and 4-fold serial dilutions.
1 μL of a compound of the present disclosure and the reference compound (Table O) was transferred to an assay plate. 1 μL of droperidol was transferred to an assay plate according to the plate map for nonspecific binding (Low control: LC). 1 μL of DMSO was transferred to an assay plate according to the plate map for total binding (High control: HC). Following a plate map, 100 μL of the membrane stock solutions and radio ligand were added into the plate. The plates were sealed and shaken with 300 rpm.
as §1, with “the GF/B” for “the GF/C”
^3H trapped on filters were counted using Perkin Elmer MicroBeta2 Reader. Inhibition constants were calculated using the following equation: […]
The data was analyzed using Prism 5. The model used was “log(inhibitor) vs. response—Variable slope” to fit the data and calculate IC50. The IC50 was then converted to Ki using the following equation: Ki=IC50/(1+L/Kd), wherein L is the radioligand concentration in the reaction system; Kd is the affinity of radioligand to the receptor. As shown in Table Q Compound No. 7 has a lower affinity for D2 when compared to Compounds A-2, A-3, A-4, and A-5.

Chain of D2 (P14416 whole entry): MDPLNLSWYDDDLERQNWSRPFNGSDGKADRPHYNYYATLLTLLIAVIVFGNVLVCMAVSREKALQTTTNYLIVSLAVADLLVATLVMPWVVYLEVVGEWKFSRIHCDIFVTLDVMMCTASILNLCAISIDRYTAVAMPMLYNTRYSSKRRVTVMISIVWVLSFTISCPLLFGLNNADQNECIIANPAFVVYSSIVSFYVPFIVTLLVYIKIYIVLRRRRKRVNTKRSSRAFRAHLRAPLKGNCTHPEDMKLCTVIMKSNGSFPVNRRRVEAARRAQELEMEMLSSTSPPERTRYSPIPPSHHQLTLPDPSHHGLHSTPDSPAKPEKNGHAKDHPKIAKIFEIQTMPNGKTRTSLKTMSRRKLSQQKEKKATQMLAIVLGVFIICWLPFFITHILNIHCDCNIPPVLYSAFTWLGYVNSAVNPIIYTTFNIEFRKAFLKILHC
Chain of 5-HT2C (P28335 33-458): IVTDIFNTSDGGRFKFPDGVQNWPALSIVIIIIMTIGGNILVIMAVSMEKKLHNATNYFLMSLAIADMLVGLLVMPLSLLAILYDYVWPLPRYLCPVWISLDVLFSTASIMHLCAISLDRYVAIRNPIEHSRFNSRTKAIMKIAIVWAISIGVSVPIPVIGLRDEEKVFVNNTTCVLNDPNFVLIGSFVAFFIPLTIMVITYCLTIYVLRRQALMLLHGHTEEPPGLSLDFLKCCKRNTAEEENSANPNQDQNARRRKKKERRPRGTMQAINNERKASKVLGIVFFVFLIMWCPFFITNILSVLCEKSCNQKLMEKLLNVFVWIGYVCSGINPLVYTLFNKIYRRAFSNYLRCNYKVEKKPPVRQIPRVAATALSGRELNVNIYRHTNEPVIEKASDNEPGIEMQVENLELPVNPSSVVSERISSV

As for `Cc1ccc2c(c1)N=C(N1CCN(CC(C)(C)C(=O)O)CC1)c1cc(C)ccc1O2` [A-2, 3-(4-(2,8-dimethyldibenzo[b,f][1,4]oxazepin-11-yl)piperazin-1-yl)-2,2-dimethylpropanoic acid, reference compound], the values for the inhibition constant (Ki) in experiment [1] and in experiment [2] were 265 nM and 60 nM, respectively.
For `Cc1ccc2c(c1)Oc1ccc(C)cc1C(N1CCN(CC(C)(C)C(=O)O)CC1)=N2` [A-3, 3-(4-(2,7-dimethyldibenzo[b,f][1,4]oxazepin-11-yl)piperazin-1-yl)-2,2-dimethylpropanoic acid, reference compound], the results for the Ki in experiment [1] and in experiment [2] were 125 nM and 152 nM, respectively.
With `Cc1ccc2c(c1)N=C(N1CCN(CC(C)(C)C(=O)O)CC1)c1ccc(C)cc1O2` [A-4, 3-(4-(3,8-dimethyldibenzo[b,f][1,4]oxazepin-11-yl)piperazin-1-yl)-2,2-dimethylpropanoic acid, reference compound], the results for the inhibition constant (Ki) in experiment [1] and in experiment [2] were 772 nM and 1900 nM, respectively.
Turning to `CC(C)(CN1CCN(C2=Nc3ccccc3Oc3ccccc32)CC1)C(=O)O` [A-5, 3-(4-(dibenzo[b,f][1,4]oxazepin-11-yl)piperazin-1-yl)-2,2-dimethylpropanoic acid, reference compound], the inhibition constant (Ki) amounted to 680 nM in experiment [1] and 2870 nM in experiment [2].
